Results on one compound are retold here after patent US20040253252A1, “Biological compositions and methods for treatment of leukemia” (priority 2003, published 2004).

Holding throughout (format): in vivo, mouse
For assay [1], the system named is leukemia cell line L6565. The settings on record: SWI mice; for Number of live animals remaining in the group: 30 mice per group. Here is the method: The survival time of mice after tumor injection and treatment was studied.
(§1) The biological composition comprising 10^8 cells per ml of activated and conditioned yeast cells of the strain Saccharomyces cerevisiae Hansen strain AS2.11 was prepared by the methods described in Section 5.1 and subsections therein.
The animals were prepared in a similar manner as described in Section 6.1.
The mice injected with tumor cells were kept for 5 days and then were divided into 4 experimental groups of ten mice per group and one control group. The four experimental groups were triplicated (i.e., using a total of 120 mice in the experimental groups). In group 2AY, the mice received 0.3 ml of the biological composition once per day. In group 2NY, the mice received 0.3 ml of the untreated yeast cells once per day. […] In group 2CK1, the mice received 0.3 ml of physiological saline once per day.
(§2) The mice in group CK2 also started receiving saline on the same day as the other four groups. […] The mice were observed over 6 months from the day of tumor inoculation and survival was recorded. The number of tumor cells in the mice were determined by standard techniques.

Assay [2] relates to leukemia cell line T739. To be noted: T739 mice; for Number of live animals remaining in the group: 30 mice per group. Here is the method:
The survival time of the […] after tumor injection and treatment was studied.
as §1
The animals were prepared in a similar manner as described in Section 8.1.
The mice injected with tumor cells were immediately divided into 4 experimental groups of ten mice per group and one control group. The four experimental groups were triplicated (i.e., using a total of 120 mice in the experimental groups). In group 2AY, the mice received 0.3 ml of the biological composition once per day. In group 2NY, the mice received 0.3 ml of the untreated yeast cells once per day. […] In group 2CK1, the mice received 0.3 ml of physiological saline once per day.
as §2

For assay [3], the system named is leukemia cell line T739. The settings on record: T739 mice. The method, then: as §1
(§3) The mice injected with tumor cells were immediately divided into 4 experimental groups of ten mice per group and one control group. The four experimental groups were triplicated (i.e., using a total of 120 mice in the experimental groups).
(§4) The mice in group CK2 also started receiving saline on the same day as the other four groups. […] The number of tumor cells in the mice were determined by standard techniques.

In assay [4] the test system is leukemia cell line L6565. The settings on record: SWI mice. The method, then:
as §1, §3, §4

[5] abbreviates: 1 month after cessation of treatment.
Where [6] appears, read: 2 months after cessation of treatment.
Setting [7] is: 3 months after cessation of treatment.
Where [8] appears, read: 4 months after cessation of treatment.
Setting [9] is: 5 months after cessation of treatment.
[10] abbreviates: 6 months after cessation of treatment.

Read-outs that look alike come from different tables or passages of the source.

`O=P1(N(CCCl)CCCl)NCCCO1` (centres unmarked) [CTX, cyclophosphamide]: the “Number of live animals remaining in the group” value in assay [1] (0 month after cessation of 21 days of treatment) was determined as 28; in assay [1] (setting [5]), 19; in assay [1] (setting [6]), 3; in assay [1] (setting [7]), 0; in assay [1] (setting [8]) it was 0; in assay [1] (setting [9]), 0. Further, the “Number of live animals remaining in the group” value came out at 0 in assay [1] (setting [10]); 28 in assay [2] (0 month after cessation of treatment); 19 in assay [2] (setting [5]); 3 in assay [2] (setting [6]); 0 in assay [2] (setting [7]); 0 in assay [2] (setting [8]). Further, the “Number of live animals remaining in the group” value in assay [2] (setting [9]) and in assay [2] (setting [10]) was 0 throughout. For the same compound, the “survival outcome during the experiment” value in assay [1] (observed over 6 months) and in assay [2] (observed over 6 months) was “died during the experiment” in each case. Besides, the “number of leukemia cells and standard deviation” value in assay [3] (T739 cells s.c., 21 consecutive days of treatment, sacrificed on 22nd day (or measured at time of death)) amounted to 957 ± 132 cells/ml; in assay [4] (L6565 cells s.c., 21 consecutive days of treatment, sacrificed on 22nd day (or measured at time of death)) it was 933 ± 241 cells/ml. In addition, the development of leukemia result in assay [3] (21 days of treatment) is recorded as “developed leukemia”; in assay [4] (L6565, 21 days of treatment), “developed leukemia”.
